Drawing on patent publication US10653688B2, “6-(6-membered heteroaryl and aryl)isoquinolin-3-yl carboxamides and preparation and use thereof” (Samumed, LLC, priority 2017, dated 2020), this text covers EC50 and inhibition for 16 compounds.

A word on the EC50: it is the concentration that produces a half-maximal response. As a reminder, the inhibition is how much of the control response was suppressed.

The subject of assay [1] is Wnt activity (SW480 colon carcinoma cells stably expressing the Sp5-Luc reporter gene). The assay can be described thus: Wnt activity screening assay (Sp5-Luc reporter gene assay). As to conditions: Homo sapiens; for EC50: 36 to 48 hours; for inhibition at 10 µM: read-out: percent inhibition at 10 μM (given for EC50 >10 μM), 10 μM. It is filed as cell-based, human. The procedure, abridged:
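EC50 values come from a variable-slope four-parameter fit of luminescence normalized to DMSO-only wells. The read-out follows 36–48 h incubation at 37 °C, 5% CO2, in DMEM containing 1% fetal bovine serum. Cells are hygromycin-selected SW480 stably expressing firefly luciferase under a Wnt-responsive Sp5 promoter (eight TCF/LEF sites).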

Assay [2] concerns Tau phosphorylation at Ser396 (pSer396) in SH-SY5Y cells. Put plainly: Tau phosphorylation at Ser396 (pSer396) cell assay, ELISA/western blot. It is filed as cell-based, human. As to conditions: Homo sapiens; SH-SY5Y cells, overnight (16-18 h); read-out: pSer396 Tau EC50. On the technique in general: ELISA stands for enzyme-linked immunosorbent assay.
Assay [3] relates to SW480 colon carcinoma cells. Put plainly: Cell viability assay (CellTiter-Glo). To be noted: Homo sapiens; for EC50: 96 h, four days, CellTiter-Glo; for inhibition at 10 µM: read-out: percent inhibition at 10 μM (given for EC50 >10 μM), 10 μM. It is filed as cell-based, human. A general note: ATP-based viability assays read luminescence as a measure of living cells.
Assay [4] relates to secreted cytokines TNFα, IL-6 and KC-GRO in BV-2 cells (mouse microglial cells). Put plainly: Secreted cytokines in lipopolysaccharide-stimulated mouse glial cell line. The assay is classed as cell-based. As to conditions: LPS 250 ng/mL 5 hours, table does not say which cytokine. In outline: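 BV-2 cells seeded at 35,000/well were pretreated overnight with compound (10 μM to 4.6 nM final), then stimulated 5 h with 250 ng/mL E. coli O111:B4 LPS. Supernatant TNFα, IL-6 and KC-GRO were quantified by electrochemiluminescence against standard curves (pg/mL) to fit EC50. Cytotoxicity was checked by CellTiter-Glo ATP read-out.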

Assay [5] has as its system pT212Tau in Dyrk1a- and MAPT-overexpressing HEK293T cells. The assay can be described thus: Tau phosphorylation at Threonine 212 (pT212Tau) sandwich ELISA in double transfected cells. As to conditions: Homo sapiens, HEK-293T, read-out: Thr212 EC50 (μM).

SMILES strings stand for the structures.

In the case of `[2H]c1nc([2H])c(-c2ccc3cnc(NC(=O)CN4CCN(C)CC4)cc3c2)c([2H])c1[2H]` [Compound 61, 2-(4-Methylpiperazin-1-yl)-N-(6-(pyridin-3-yl-d4)isoquinolin-3-yl)acetamide], the EC50 in assay [1] is more than 10000 nM; in assay [2] it was 9800 nM; in assay [3] it was more than 10000 nM; in assay [4], 86 nM; in assay [5], 0.121 µM. Also, the inhibition at 10 µM in assay [1] stood at 19.6%; in assay [3], 21.6%.

As for `CN1CCC(C(=O)Nc2cc3cc(-c4cncc(N5CCCC5)c4)ccc3cn2)CC1` [Compound 50, 1-Methyl-N-(6-(5-(pyrrolidin-1-yl)pyridin-3-yl)isoquinolin-3-yl)piperidine-4-carboxamide], the half-maximal effective concentration (EC50) was 312 nM in assay [1]; more than 10000 nM in assay [2]; 2200 nM in assay [3]; 109 nM in assay [4]; 0.113 µM in assay [5].

As to `O=C(CN1CCOCC1)Nc1cc2cc(-c3cccnc3)ccc2cn1` [Compound 10, 2-Morpholino-N-(6-(pyridin-3-yl)isoquinolin-3-yl)acetamide], the EC50 in assay [1] was more than 10000 nM; in assay [2], 2900 nM; in assay [3] it was more than 10000 nM; in assay [4] it was 75 nM; in assay [5], 0.046 µM. Further, the inhibition at 10 µM in assay [1] is 15.3%; in assay [3] it was 15.4%.

With `CN1CCC(C(=O)Nc2cc3cc(-c4cnccn4)ccc3cn2)CC1` [Compound 75, 1-Methyl-N-(6-(pyrazin-2-yl)isoquinolin-3-yl)piperidine-4-carboxamide], the EC50 is more than 10000 nM in assay [1]; more than 10000 nM in assay [2]; more than 10000 nM in assay [3]; 194 nM in assay [4]; 0.089 µM in assay [5]. Besides, the values for the inhibition at 10 µM in assay [1] and in assay [3] were 33.7% and 44.5%, respectively.

Consider `CC(C)Nc1cncc(-c2ccc3cnc(NC(=O)C4CCN(C)CC4)cc3c2)n1` [Compound 88, N-(6-(6-(Isopropylamino)pyrazin-2-yl)isoquinolin-3-yl)-1-methylpiperidine-4-carboxamide], for which the EC50 in assay [1] was 68 nM; in assay [2] it was 129 nM; in assay [3] it was 364 nM; in assay [4], 1070 nM; in assay [5] it was less than 0.003 µM.

Consider `O=C(Nc1cc2cc(-c3cncc(CN4CCCC4)c3)ccc2cn1)C1CC1` [Compound 51, N-(6-(5-(Pyrrolidin-1-ylmethyl)pyridin-3-yl)isoquinolin-3-yl) cyclopropanecarboxamide], for which the EC50 was 1260 nM in assay [1]; 1900 nM in assay [2]; 4060 nM in assay [3]; 171 nM in assay [4]; 0.047 µM in assay [5].

On to `CN1CCN(Cc2cncc(-c3ccc4cnc(NC(=O)C5CC5)cc4c3)c2)CC1` [Compound 56, N-(6-(5-((4-Methylpiperazin-1-yl)methyl)pyridin-3-yl)isoquinolin-3-yl) cyclopropanecarboxamide], for which the EC50 worked out at 1230 nM in assay [1]; 4900 nM in assay [2]; 3300 nM in assay [3]; 177 nM in assay [4]; 0.045 µM in assay [5].

Turning to `CN1CCN(C[C@H]2CC[C@H](C(=O)Nc3cc4cc(-c5cnccn5)ccc4cn3)CC2)CC1` [Compound 73, trans-4-((4-Methylpiperazin-1-yl)methyl)-N-(6-(pyrazin-2-yl)isoquinolin-3-yl)cyclohexane-1-carboxamide], the EC50 in assay [1] was more than 10000 nM; in assay [2], more than 10000 nM; in assay [3] it was more than 10000 nM; in assay [4] it was 694 nM; in assay [5], 0.024 µM. The inhibition at 10 µM in assay [1] was 33.3%; in assay [3], 50.7%.

As for `CN1CCC(C(=O)Nc2cc3cc(-c4cccnc4)ccc3cn2)CC1` [Compound 8, 1-Methyl-N-(6-(pyridin-3-yl)isoquinolin-3-yl)piperidine-4-carboxamide], the EC50 in assay [1] was found to be 1280 nM; in assay [2], 795 nM; in assay [3] it was 3140 nM; in assay [4], 36 nM; in assay [5], 0.019 µM.

Regarding `O=C(Nc1cc2cc(-c3cnccn3)ccc2cn1)[C@H]1CC[C@H](CN2CC(F)C2)CC1` [Compound 72, trans-4-((3-Fluoroazetidin-1-yl)methyl)-N-(6-(pyrazin-2-yl)isoquinolin-3-yl)cyclohexane-1-carboxamide], the EC50 is more than 10000 nM in assay [1]; 7700 nM in assay [2]; more than 10000 nM in assay [3]; 1310 nM in assay [4]; 0.628 µM in assay [5]. Moreover, the inhibition at 10 µM in assay [1] is 35.7%; in assay [3], 35.6%.

Regarding `O=C(Nc1cc2cc(-c3cnccn3)ccc2cn1)[C@H]1CC[C@H](N2CCOCC2)CC1` [Compound 71, trans-4-Morpholino-N-(6-(pyrazin-2-yl)isoquinolin-3-yl)cyclohexane-1-carboxamide], the EC50 in assay [1] is more than 10000 nM; in assay [2] it was 3300 nM; in assay [3], more than 10000 nM; in assay [4] it was 629 nM; in assay [5], 0.019 µM. Also, the inhibition at 10 µM is 32.1% in assay [1] and 14.6% in assay [3].

In the case of `O=C(CCN1CCOCC1)Nc1cc2cc(-c3cncc(F)c3)ccc2cn1` [Compound 23, N-(6-(5-Fluoropyridin-3-yl)isoquinolin-3-yl)-3-morpholinopropanamide], the EC50 was more than 10000 nM in assay [1]; 8500 nM in assay [2]; more than 10000 nM in assay [3]; 628 nM in assay [4]; more than 10 µM in assay [5]. In addition, the inhibition at 10 µM worked out at 38.7% in assay [1] and 24.8% in assay [3].

Regarding `CN1CCC(C(=O)Nc2cc3cc(-c4cncc(F)c4)ccc3cn2)CC1` [Compound 19, N-(6-(5-Fluoropyridin-3-yl)isoquinolin-3-yl)-1-methylpiperidine-4-carboxamide], the EC50 was more than 10000 nM in assay [1]; 9400 nM in assay [2]; more than 10000 nM in assay [3]; 124 nM in assay [4]; 0.205 µM in assay [5]. For the same compound, the values for the inhibition at 10 µM in assay [1] and in assay [3] were 35.9% and 42.8%, respectively.

`CN1CCCN(CC(=O)Nc2cc3cc(-c4cccnc4)ccc3cn2)CC1` [Compound 12, 2-(4-Methyl-1,4-diazepan-1-yl)-N-(6-(pyridin-3-yl)isoquinolin-3-yl) acetamide]: the EC50 is more than 10000 nM in assay [1]; 2300 nM in assay [2]; more than 10000 nM in assay [3]; 1000 nM in assay [4]; 0.284 µM in assay [5]. The values for the inhibition at 10 µM in assay [1] and in assay [3] were 39.8% and 39.3%, respectively.

Regarding `O=C(CN1CCCC1)Nc1cc2cc(-c3cccnc3)ccc2cn1` [Compound 7, N-(6-(Pyridin-3-yl)isoquinolin-3-yl)-2-(pyrrolidin-1-yl)acetamide], the EC50 in assay [1] turned out to be 3840 nM; in assay [2], 2200 nM; in assay [3], 3530 nM; in assay [4] it was 6 nM; in assay [5] it was 0.225 µM.

With `O=C(Nc1cc2cc(-c3cncc(CN4CCC(O)CC4)c3)ccc2cn1)C1CC1` [Compound 53, N-(6-(5-((4-Hydroxypiperidin-1-yl)methyl)pyridin-3-yl)isoquinolin-3-yl) cyclopropanecarboxamide], the EC50 in assay [1] was 691 nM; in assay [2], 705 nM; in assay [3], 2350 nM; in assay [4], 55 nM; in assay [5], 0.003 µM.
